Laboratory results as given in patent publication US20040127403A1, “Methods for treating and preventing Gram-positive bacteremias” (priority 2002, published 2004).

Tested on: E. faecium A6345 Line-R
Experiment: MIC, NCCLS broth microdilution
Type: cell-based
Description: The efficacy of ramoplanin was tested against recently isolated VRE that are resistant to linezolid and quinupristin/dalfopristin. The culture media containing ramoplanin was supplemented with 0.02% bovine serum albumin (BSA) to prevent ramoplanin binding to the plastic. MIC values were determined in both cation-adjusted Mueller-Hinton broth (CAMHB) and trypticase soy broth (TSB) by the National Committee for Clinical Laboratory Standards (NCCLS) broth microdilution method. Macromolecular biosynthesis experiments were done by following the incorporation of carbon-14-labeled N-acetylglucosamine, acetic acid, amino acids, uridine, and thymidine into peptidoglycan, fatty acid, protein, RNA and DNA, respectively.

[1] = E. faecium A6345 Line-R. as printed, second row of Table 3
[2] = E. faecium A6345 Line-R., first row of Table 3

SMILES	reference MIC for strains used for killing curve [1] [µg/mL]	reference MIC for strains used for killing curve [2] [µg/mL]
O=C(N[C@H](CO)[C@H](O)c1ccc([N+](=O)[O-])cc1)C(Cl)Cl [Chloramphenicol]	16	16
CO[C@H]1/C=C/O[C@@]2(C)Oc3c(C)c(O)c4c(O)c(c(/C=N/N5CCN(C)CC5)c(O)c4c3C2=O)NC(=O)/C(C)=C\C=C\[C@H](C)[C@H](O)[C@@H](C)[C@@H](O)[C@@H](C)[C@H](OC(C)=O)[C@@H]1C [Rifampin]	0.03	16
